Reference: paper PMC3375286, “Crystal Structures Reveal the Multi-Ligand Binding Mechanism of Staphylococcus aureus ClfB” (PLoS Pathogens, 2012)
Where no end group is shown, it is not given here.

T1: ClfB (Staphylococcus aureus, UniProt O86476)
T1 construct: The fragment of the ClfB gene (corresponding 197–542 aa) was amplified by PCR; His-tag; made in house; host or cells: E. coli BL21
T1 sequence (O86476 197-542): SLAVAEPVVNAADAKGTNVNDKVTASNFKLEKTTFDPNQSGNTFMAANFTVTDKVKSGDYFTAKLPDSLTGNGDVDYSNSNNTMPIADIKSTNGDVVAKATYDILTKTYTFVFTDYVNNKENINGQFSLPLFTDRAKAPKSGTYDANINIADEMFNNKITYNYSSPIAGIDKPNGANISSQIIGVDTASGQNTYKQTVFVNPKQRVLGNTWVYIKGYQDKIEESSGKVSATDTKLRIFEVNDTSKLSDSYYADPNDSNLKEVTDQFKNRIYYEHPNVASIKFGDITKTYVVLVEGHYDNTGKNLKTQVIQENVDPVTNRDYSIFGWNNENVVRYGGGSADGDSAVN

T2: ClfB(197–542) wildtype (Staphylococcus aureus, UniProt O86476)
T2 construct: The fragment of the ClfB gene (corresponding 197–542 aa) was amplified by PCR; His-tag; made in house; host or cells: E. coli BL21
T2 sequence (O86476 197-542): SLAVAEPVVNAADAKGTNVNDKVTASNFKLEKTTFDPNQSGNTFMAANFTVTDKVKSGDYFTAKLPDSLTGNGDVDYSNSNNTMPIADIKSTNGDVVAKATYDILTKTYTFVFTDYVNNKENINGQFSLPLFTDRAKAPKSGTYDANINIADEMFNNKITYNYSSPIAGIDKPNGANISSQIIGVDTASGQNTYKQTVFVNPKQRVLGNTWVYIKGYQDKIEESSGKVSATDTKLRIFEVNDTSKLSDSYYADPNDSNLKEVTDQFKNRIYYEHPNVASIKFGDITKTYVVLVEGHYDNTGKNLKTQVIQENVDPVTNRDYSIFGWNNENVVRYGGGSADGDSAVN

T3: Dermokine (Homo sapiens)
T3 chain: SQSGSSGSGSNGDNN


molecular target: T1, ClfB; experiment: SPR (BIAcore T200) alanine scan of 9-residue GSR peptides and the 6-residue peptide on immobilized ClfB; format: binding; settings: SPR BIAcore T200, 10°C; ClfB amine-coupled (~5300 RU) on CM5 chip; peptides 31.25-2000 µM in 10 mM HEPES pH 7.4, 150 mM NaCl, 0.005% Tween 20; 30 µl/min; 1:1 Langmuir fit
Description: A. Panel of dermokine peptides. […] Navy, 2000 µM; Magenta, 1000 µM; Dark cyan or dark yellow, 500 µM; Blue, 250 µM; Red, 125 µM; Green, 62.5 µM; Black, 31.25 µM.
The binding affinities between ClfB and the ten 9-amino–acid peptides and the 6-amino-acid peptide were determined by surface plasmon resonance (SPR) using BIAcore T200 instrument (GE Healthcare) at 10°C. The ClfB protein was immobilized to about 5300 Response Unit (RU) on a research-grade CM5 sensor chip in 10 mM sodium acetate, pH 5.0 by standard amine coupling method. The flow cell 1 was left blank as a reference. […] The ligands were allowed to associate for 60 s and dissociate for 120 s. Data were analyzed with the BIAcore T200 evaluation software by fitting to a 1∶1 Langmuir binding fitting model.

Molecule	Kd
GASGSGSNG [Peptide3]	1240 µM
GSSGAGSNG [Peptide6]	195 µM
GSSASGSNG [Peptide5]	1140 µM
GSAGSGSNG [Peptide4]	502 µM
GSSGSASNG [Peptide7]	1610 µM
GSSGSGSNA [Peptide10]	1170 µM
GSSGSGSAG [Peptide9]	403 µM
ASSGSGSNG [Peptide2]	1600 µM
GSSGSG [Peptide11]	833 µM
GSSGSGANG [Peptide8]	326 µM

molecular target: T2, ClfB(197–542) wildtype; experiment: SPR (ProteOn XPR36) binding of ClfB(197–542) wild type to immobilized peptide 15 from Dermokine; settings: SPR ProteOn XPR36, peptide captured on NLC Sensor Chip (460 RU), 25°C, 10 mM HEPES pH 7.2, 150 mM NaCl; ClfB(197–542) injected at 87.5-700 µM; repeated three times; read-out: dissociation constant (KD)
Description: Firstly, Derm was tested for its interaction with ClfB. To this end, we synthesized a 15-amino-acid-peptide (250–264; […], designated as Derm15 hereafter) derived from Derm and then characterized its binding to ClfB using the SPR (Surface Plasmon Resonance) assay. In the assay, ClfB bound to the peptide with a dissociation constant of 2.37 µM (Figure 7A). […] To understand the molecular mechanism underlying this interaction, we solved the crystal structure of ClfB(208–542) bound to the peptide at 2.5 Å resolution. As expected, Derm15 interacts with ClfB in a nearly identical manner with Fg α(316–328) and CK10(499–512) (Figure 7 B). The ClfB^Arg529 forms a hydrogen bond with […] and the C-terminus of N3 forms an extra strand, which is similar as that in the ClfB-Fg α(316–328) and ClfB-CK10(499–512) complexes (Figure 7 C). Mutagenesis studies were conducted to further verify the binding of Derm15 to ClfB. We replaced the residues ClfB^S236, W522 that participate in interactions with the peptide with alanine respectively. The mutant proteins were purified to homogeneity and tested for their interaction with the Derm peptide using SPR.
Figure 7 Dermokine is a potential ligand of ClfB. […] Red, 700 µM; blue, 350 µM; green, 87.5 µM. […]
Binding of ClfB(197–542) to peptide 15 was assessed by SPR using the ProteOn XPR36 equipment (Bio-Rad Laboratories, Inc.). […]

Molecule	Kd
GQSGSSGSGSNGDNN [Derm15]	2.37 µM

Molecular target: T3, Dermokine
Experiment: SPR
Settings: not given

Molecule	Kd
Clumping factor B 197-542 (protein) SLAVAEPVVNAADAKGTNVNDKVTASDFKLEKTAFDPNQSGNTFMAANFKVTGQVKSGDYFTAKLPDSVTGNGDVDYSNSNNTMPIADIKSTNGDVVAKATYDILTKTYTFVFTDYVNDKENINGQFSLPLFTDRAKAPKSGTYDANINIADEMFDNKITYNYSSPIAGIDKPNGANISSQIIGVDTASGQNTYKQTVFVNPKQRVLGNTWVYIKGYQDKIEESSGKVSATDTKLRIFEVNDTSKLSDSYYADPNDSNLKEVTGEFKDKISYKYDNVASINFGDINKTYVVLVEGHYDNTGKNLKTQVIQENIDPATGKDYSIFGWNNENVVRYGGGSADGDSAVN	2.37 µM
